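Five concentrations, 48 hours, 96-well plates. TGI: total growth inhibition.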

Assay in all cases: NCI tumour cell line growth inhibition, 48 h
Assay [1] relates to SK-MEL-2 melanoma.
The test system of assay [2] is U251 CNS.
For assay [3], the system named is NCI-H460 lung.
Assay [4] relates to HCT-116 colon.
Assay [5] concerns MDA-N.
Assay [6] relates to HCC-2998 colon.
The subject of assay [7] is A498 renal.
Assay [8] concerns MOLT-4 leukemia.
Assay [9] relates to RPMI-8226 leukemia.
Assay [10] relates to SK-MEL-5 melanoma.
For assay [11], the system named is MDA-MB-435.
The subject of assay [12] is HOP-92 NSCLC.
Assay [13] relates to TK-10 renal.
Assay [14] has as its system T-47D breast.
Assay [15] deals with NCI/ADR-RES ovarian.
For assay [16], the system named is KM12 colon.
Assay [17] concerns NCI-H522 lung.
Assay [18] concerns HS 578T breast.
Assay [19] concerns HT29 colon.

`CCOC(=O)C(SCCO)C(C(=O)OCC)n1cnc2c(N)ncnc21` (stereo not drawn): the TGI in assay [1] was 24.4 µM; in assay [2] it was 20.4 µM; in [3], 18 µM; in [4], 22.2 µM; in assay [5] it was 44.1 µM; in assay [6], 30.4 µM. The TGI in assay [7] was 19.2 µM; in [8] it was 20 µM; in assay [9], 23.5 µM; in assay [10], above 58 µM; in assay [11], 30.2 µM; in [12] it was 13.4 µM. Moreover, the TGI in assay [13] amounted to 28.3 µM; in [14], 30.8 µM; in assay [15], 56.7 µM; in [16], 35.2 µM; in assay [17], 19.1 µM; in assay [18], 59.2 µM. The molecule further had a TGI in assay [19] of 25.4 µM.

As for `COCC(N=CN1CCCc2ccccc2[C@@H]1CCCCl)C(C)(C)C` (stereo partly drawn), the TGI in assay [1] is 38.3 µM; in assay [2], 34.8 µM; in assay [3] it was 97.2 µM; in assay [4], 9.48 µM; in assay [5], 68.2 µM; in assay [6], 33.9 µM. The TGI is 33.5 µM in assay [7]; 15.5 µM in assay [8]; 8.95 µM in [9]; 9.35 µM in assay [10]; 26.4 µM in [11]; 30 µM in [12]. The TGI in [13] is 28.8 µM; in assay [14] it was 84.1 µM; in [15] it was 3.19 µM; in assay [16], 20.3 µM; in assay [17], 21.1 µM; in assay [18], 17.6 µM. Further, the TGI in assay [19] came out at 69.7 µM.

Take `COc1ccc(OC)c2sc(N3C(=O)/C(=C/c4ccc(Cl)cc4)N=C3c3ccccc3)nc12`: the TGI in assay [1], in assay [2], in assay [3], in assay [4], in assay [5] and in [6] was above 100 µM in each case. Besides, the TGI is above 100 µM in [7]; 66.8 µM in [8]; above 100 µM in assay [9]; above 100 µM in [10]; above 100 µM in assay [11]; above 100 µM in assay [12]. The TGI is above 100 µM in assay [13]; 78.5 µM in assay [14]; above 100 µM in assay [15]; above 100 µM in assay [16]; above 100 µM in assay [17]; above 100 µM in [18]. Further, the TGI in [19] is above 100 µM.

With `O=c1[nH]c(C23CC4CC(CC(C4)C2)C3)cc2c1c(=O)oc1ccccc12`, the TGI in assay [1] was 38.7 µM; in assay [2], 7.55 µM; in [3] it was 11.6 µM; in assay [4], 12.4 µM; in [5], above 59.3 µM; in [6] it was 19.6 µM. Also, the TGI in assay [7] was 5.11 µM; in assay [8] it was above 100 µM; in assay [9] it was 15.1 µM; in assay [10] it was 18.3 µM; in assay [11], above 60.5 µM; in assay [12] it was 6.48 µM. For the same molecule, the TGI in assay [13] is 12.2 µM; in assay [14] it was 44.6 µM; in assay [15], 18.9 µM; in assay [16], above 96 µM; in [17], 11.1 µM; in assay [18], above 20.3 µM. Moreover, in assay [19], the TGI amounted to 15.7 µM.

For `COc1ccc2nc3c([N+](=O)[O-])ccc4c3c(c2c1)N=CN4CCCN(C)C`, the TGI in [1] was 22.8 µM; in [2] it was 24.3 µM; in assay [3], 16.3 µM; in assay [4], 14.1 µM; in assay [5] it was 21.8 µM; in assay [6], 6.54 µM. Also, the TGI was 21.4 µM in assay [7]; 0.757 µM in assay [8]; 0.772 µM in [9]; 12.1 µM in [10]; 20.1 µM in assay [11]; 8.94 µM in assay [12]. In addition, the TGI was 6.51 µM in [13]; 27.4 µM in assay [14]; 18 µM in [15]; 13 µM in assay [16]; 9.61 µM in assay [17]; 27.5 µM in assay [18]. Besides, the TGI in [19] is 12.5 µM.

For `COc1cc(/C=C(\C#N)c2nc3ccccc3o2)ccc1O`, the TGI in assay [1] was 47.3 µM; in assay [2], 36.2 µM; in assay [3] it was 48.4 µM; in assay [4] it was 34.3 µM; in [5], above 100 µM; in [6], 41.9 µM. Further, the TGI was 34.8 µM in assay [7]; above 100 µM in [8]; 63.6 µM in assay [9]; 36.3 µM in assay [10]; 41.6 µM in [11]; 50.8 µM in assay [12]. The TGI in [13] was 75 µM; in assay [14], 46.9 µM; in [15], 64.3 µM; in [16], 37.7 µM; in assay [17] it was 27.8 µM; in assay [18], 75.2 µM. In [19], this molecule showed a TGI of 48.1 µM.

Consider `CCOC(=O)C1=CN/C(=C(/C)C(=O)OC)SC1C(=O)OCC` (stereo not drawn), for which the TGI in assay [1], in assay [2], in assay [3], in assay [4], in assay [5] and in assay [6] was above 100 µM throughout. Moreover, the TGI in [7], in assay [8], in assay [9], in assay [10], in assay [11] and in assay [12] was above 100 µM in each case. In addition, the TGI in [13], in assay [14], in [15], in assay [16], in assay [17] and in [18] was above 100 µM throughout. Besides, the TGI in assay [19] is above 100 µM.

(Values after PubChem BioAssay (NCI).)
